According to EP1146873B1, “ANTI-ANDROGENS AND METHODS FOR TREATING DISEASE” (SMITHKLINE BEECHAM CORPORATION, priority 1999, dated 2000):

Assays:
[1] = test system: testosterone; assay: Serum/plasma testosterone concentration in male dogs after oral or intravenous dosing; assay type: in vivo; settings: for plasma concentration of testosterone: single intravenous dose of approximately 26 umoles/kg
[2] = test system: cortisol; assay: Plasma cortisol concentration in male dogs; assay type: in vivo; settings: for plasma cortisol concentration: single intravenous dose of approximately 26 umoles/kg
Text: (§1) This effect was reversible and was associated with a reduction in serum concentration of luteinizing hormone (LH).

[3] = test system: estradiol; assay: Plasma estradiol concentration in male dogs; assay type: in vivo; settings: for plasma estradiol concentration: single intravenous dose of approximately 26 umoles/kg
Text: as §1

[4] = test system: testes and prostate; assay: Once daily oral administration for 1 month, reproductive organ effects in male beagle dogs; assay type: in vivo
Description: Once daily oral administration of ((S)-(-)-N-(α-Ethylbenzyl)-3-hydroxy-2-phenylquinoline-4-carboxamide) for 1 month to sexually mature male beagle dogs (12 - 16 months of age) produced decreases in the size and/or weight of testes and prostate. […] The incidence and severity of these changes were dose-related with 1 of 3, 2 of 3, 2 of 3, 6 of 6 and 3 of 3 male dogs affected at doses of 0.3, 3, 30, 300 or 1000 mg/kg per day, respectively.

[5] = test system: reproductive organs; assay: Once daily oral administration for 1 month, reproductive organ effects in male rats; assay type: in vivo; settings: 0.1 to 1000 mg/kg per day
Description: (§2) Once daily oral administration of ((S)-(-)-N-(α-Ethylbenzyl)-3-hydroxy-2-phenylquinoline-4-carboxamide) for 1 month to male rats or for 2 weeks to male mice had no effect on the weights and/or histologic appearance of the reproductive organs. The daily doses ranged from 0.1 to 1000 mg/kg per day.

[6] = test system: androstenedione; assay: Plasma androstenedione concentration in male dogs; assay type: in vivo; settings: single oral dose of 300 mg/kg
Text: as §1

[7] = test system: luteinizing hormone (LH); assay: Serum luteinizing hormone concentration in male dogs; assay type: in vivo; settings: single oral dose of 300 mg/kg
Text: as §1

[8] = test system: testosterone; assay: Serum/plasma testosterone concentration in male dogs after oral or intravenous dosing; assay type: in vivo
Description: The ((S)-(-)-N-(α-Ethylbenzyl)-3-hydroxy-2-phenylquinoline-4-carboxamide)-dependent changes in the testes and prostate of male dogs were associated with reductions in serum concentration of testosterone. Testosterone concentrations were reduced after either a single oral dose of 300 mg/kg (3 of 3 dogs) or 25 daily oral doses of 0.3 (1 of 3 dogs), 3 (2 of 3 dogs) or 300 mg/kg ((S)-(-)-N-(α-Ethylbenzyl)-3-hydroxy-2-phenylquinoline-4-carboxamide) (3 of 3 dogs). Serum testosterone was measured on blood samples obtained every 2 hours for 24 hours after the single dose and every 20 minutes for 4 hours beginning approximately 2 hours after the last of the 25 daily doses. The reductions in serum testosterone observed after one or 25 daily doses of 300 mg/kg ((S)-(-)-N-(α-Ethylbenzyl)-3-hydroxy-2-phenylquinoline-4-carboxamide) were reversible in all dogs (6 of 6) within one week after the cessation of dosing.
as §1

[9] = target: T1, CYP17A1 (Canis lupus familiaris, UniProt A0A8I3PR85); assay: Enzyme inhibition in lysed dog Leydig cells; assay type: biochemical
T1 construct: using lysed dog Leydig cells; from tissue; host or cells: lysate of primary Leydig cells isolated from dog testes
T1 sequence (A0A8I3PR85 19-509): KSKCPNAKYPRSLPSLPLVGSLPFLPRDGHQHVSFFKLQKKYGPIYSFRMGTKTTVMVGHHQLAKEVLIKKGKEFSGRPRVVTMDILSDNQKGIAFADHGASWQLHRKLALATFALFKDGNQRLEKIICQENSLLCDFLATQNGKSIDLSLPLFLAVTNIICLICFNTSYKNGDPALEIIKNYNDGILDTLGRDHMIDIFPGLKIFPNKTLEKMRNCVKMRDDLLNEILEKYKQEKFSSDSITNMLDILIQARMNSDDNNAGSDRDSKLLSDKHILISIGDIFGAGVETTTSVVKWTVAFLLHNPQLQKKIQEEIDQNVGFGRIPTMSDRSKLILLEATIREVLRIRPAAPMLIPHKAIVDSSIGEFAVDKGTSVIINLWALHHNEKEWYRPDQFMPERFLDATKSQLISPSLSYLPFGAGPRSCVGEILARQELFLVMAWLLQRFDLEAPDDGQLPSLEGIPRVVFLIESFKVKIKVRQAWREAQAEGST
Description: This effect occurred at incubation concentrations between 10 and 100 uM. […] Neither (S)-(-)-N-(α-Ethylbenzyl)-3-carboxymethoxy-2-phenylquinoline-4-carboxamide nor (S)-(-)-N-(α-Ethylbenzyl)-3-(3-carboxy)propoxy-2-phenylquinoline-4-carboxamide inhibited testosterone synthesis in Leydig cells isolated from the testis of the rat at the highest incubation concentration tested (300 uM). In contrast, (+)-(R)-3-[3-(4-Phenyl-4-N-methylacetamidopiperidin-1-yl)propyl]-3-(3,4-dichlorophenyl)-1-benzoylpiperidine, and (S)-(-)-N-(α-Ethylbenzyl)-3-[(4-methylpiperazin-1-yl)methyl]-2-phenylquinoline-4-carboxamide inhibited testosterone synthesis of isolated rat Leydig cells at incubation concentrations between 3 and 300 uM.

[10] = test system: reproductive organs; assay: Once daily oral administration for 2 weeks, reproductive organ effects in male mice; assay type: in vivo; settings: 0.1 to 1000 mg/kg per day
Description: as §2

[11] = test system: testosterone; assay: Plasma testosterone concentration in male rats after oral dosing; assay type: in vivo; settings: for plasma testosterone concentration: four daily oral doses ≥100 mg/kg, 4 hours after the last dose
Description: (§3) Four daily oral doses ≥100 mg/kg (S)-(-)-N-(α-Ethylbenzyl)-3-(3-carboxy)propoxy-2-phenylquinoline-4-carboxamide or (S)-(-)-N-(α-Ethylbenzyl)-3-carboxymethoxy-2-phenylquinoline-4-carboxamide reduced the plasma testosterone concentration of male rats when measured at 4 hours after the last dose. […] Reductions in plasma testosterone also occurred in male rats following single oral doses of 30 to 1000 mg/kg (S)-(-)-N-(α-Ethylbenzyl)-3-carboxymethoxy-2-phenylquinoline-4-carboxamide. Stimulation of testosterone production in vivo by a LH agonist (human chorionic gonadotropin) was not blocked by a single oral dose of 1000 mg/kg (S)-(-)-N-(α-Ethylbenzyl)-3-carboxymethoxy-2-phenylquinoline-4-carboxamide in male rats.

[12] = test system: testosterone production; assay: Stimulation of testosterone production in vivo by a LH agonist (human chorionic gonadotropin) in male rats; settings: single oral dose of 1000 mg/kg
Description: as §3

[13] = test system: LH; assay: Plasma LH concentration in male rats after oral dosing; assay type: in vivo; settings: four daily oral doses of 300 mg/kg, 4 hours after the last dose
Description: as §3

[14] = once daily oral, 1 month, male beagle dogs
[15] = single oral dose of 300 mg/kg, male dogs

CC[C@H](NC(=O)c1c(OCCCN2CCN(c3ccccc3OC)CC2)c(-c2ccccc2)nc2ccccc12)c1ccccc1 [(S)-(-)-N-(α-Ethylbenzyl)-3-[3-[4-(2-methoxyphenyl)piperazin-1-yl]propoxy]-2-phenylquinoline-4-carboxamide]
plasma concentration of testosterone [1]: reduced
plasma cortisol concentration [2]: did not lower
plasma estradiol concentration [3]: no effect

CC[C@H](NC(=O)c1c(O)c(-c2ccccc2)nc2ccccc12)c1ccccc1 [(S)-(-)-N-(α-Ethylbenzyl)-3-hydroxy-2-phenylquinoline-4-carboxamide]
plasma concentration of testosterone [1]: reduced
duration of decrease in serum testosterone ([1]; single oral dose of 300 mg/kg, post-dose): at least 24 hours
male dogs affected (testes and prostate changes) ([4]; 0.3 mg/kg per day oral, 1 month): 1 of 3
male dogs affected (testes and prostate changes) ([4]; 3 mg/kg per day oral, 1 month): 2 of 3
male dogs affected (testes and prostate changes) ([4]; 30 mg/kg per day oral, 1 month): 2 of 3
male dogs affected (testes and prostate changes) ([4]; 300 mg/kg per day oral, 1 month): 6 of 6
male dogs affected (testes and prostate changes) ([4]; 1000 mg/kg per day oral, 1 month): 3 of 3
reversibility of testes and prostate changes ([4]; male beagle dogs): demonstrated
histologic evaluation of prostate [4, 14]: diffuse atrophy of the prostate gland
histologic evaluation of testes [4, 14]: degeneration of the seminiferous epithelium of the testes with depletion of spermatogonia, spermatocytes and spermatids
size and/or weight of testes and prostate ([4]; once daily oral, 1 month, sexually mature male beagle dogs): decreases
weights and/or histologic appearance of the reproductive organs [5]: no effect
plasma concentration of androstenedione [6]: reduced
serum concentration of luteinizing hormone (LH) [7]: reduction
plasma concentration of cortisol ([2]; single oral dose of 300 mg/kg): no effect
dogs with reduced serum testosterone concentration ([8]; 25 daily oral doses of 0.3 mg/kg): 1 of 3
dogs with reduced serum testosterone concentration ([8]; 25 daily oral doses of 3 mg/kg): 2 of 3
dogs with reduced serum testosterone concentration ([8]; 25 daily oral doses of 300 mg/kg): 3 of 3
dogs in which reductions in serum testosterone were reversible ([8]; after one or 25 daily doses of 300 mg/kg, within one week after cessation of dosing): 6 of 6
dogs with reduced serum testosterone concentration ([8]; single oral dose of 300 mg/kg): 3 of 3
reversibility of decrease in serum testosterone [8, 15]: reversible
serum concentration of testosterone [8, 15]: rapid and marked decrease
plasma concentration of estradiol ([3]; single oral dose of 300 mg/kg): no effect
inhibition of the enzyme (CYP17A1) in the testosterone synthetic pathway [9]: inhibition
weights and/or histologic appearance of the reproductive organs [10]: no effect

CC[C@H](NC(=O)c1c(OCC(=O)O)c(-c2ccccc2)nc2ccccc12)c1ccccc1 [(S)-(-)-N-(α-Ethylbenzyl)-3-carboxymethoxy-2-phenylquinoline-4-carboxamide]
plasma concentration of testosterone [1]: reduced
plasma testosterone concentration [11]: reduced
plasma testosterone ([11]; single oral doses of 30 to 1000 mg/kg): Reductions
stimulation of testosterone production in vivo by a LH agonist (human chorionic gonadotropin) [12]: not blocked
plasma LH concentration [13]: reduced

CC(=O)N(C)C1(c2ccccc2)CCN(CCC[C@]2(c3ccc(Cl)c(Cl)c3)CCCN(C(=O)c3ccccc3)C2)CC1 [(+)-(R)-3-[3-(4-Phenyl-4-N-methylacetamidopiperidin-1-yl)propyl]-3-(3,4-dichlorophenyl)-1-benzoylpiperidine]
plasma concentration of testosterone [1]: reduced
plasma cortisol concentration [2]: did not lower
plasma estradiol concentration [3]: no effect

CC[C@H](NC(=O)c1c(OCCCC(=O)O)c(-c2ccccc2)nc2ccccc12)c1ccccc1 [(S)-(-)-N-(α-Ethylbenzyl)-3-(3-carboxy)propoxy-2-phenylquinoline-4-carboxamide]
plasma testosterone concentration [11]: reduced
